The results in this text go back to patent publication US20100267928A1, “ACTIVATABLE DIAGNOSTIC AND THERAPEUTIC COMPOUND” (priority 2007, published 2010).

Primed or numbered codes have the meaning given here. Where no end group is shown, it is not given here. The star is where a group is joined. DOTA = O=C(O)CN1CCN(CC(=O)O)CCN(CC(=O)*)CCN(CC(=O)O)CC1; FITC′ = fluorescent dye, fluorescein isothiocyanate

In test [1] the test system is LN18 and U373 glioma cells. As to conditions: 130 μM; APMA-containing medium without inhibitor. Here is the method: Human malignant glioma cells (U373 and LN18) were seated into 25 cm^2 culture flasks which contained 3 ml RPMI medium. This was left as it is for one day so that enough matrix metalloprotenases (MMP-2) could accumulate.
In a second test the same compounds were again dissolved in the media of 12 flasks (130 μM), however now with MMP-2 inhibitor I (Calbiochem).
As a control four small flasks were used wherein both cell lines were incubated in a one day old medium with and also without APMA.
For the confocal laser scanning microscopy an inverted LSM510 laser scanning microscope (Karl Zeiss, Jena, Deutschland) (Objectives: LD Achroplan 40×0.6, Plan Neofluar 20×0.50, 40×0.75) was used [fluorescence excitation at 488 nm (argon-ion laser) and […] (helium-neon laser)]. Superimposed images of FITC- and alexa-stained cells were produced. All measurements were performed on living, non-fixed cells for three times.

Test [2] concerns U373 and LN18 glioma cells. Kind of test: Magnetic resonance relaxometry on glioma cell centrifugates. The test is classed as cell-based, human. How it is done: Human U373 and LN18 glioma cells were grown in 25 cm^2 culture flasks (70% confluence). Accutase™ (PAA laboratories, Pasching, Austria) was added to strip off the cells from the bottom of the culture flasks.
In a first try the cells were collected and subsequently distributed on 16 Eppendorf-vials (6×10^6 cells per vial). The cells in the first four vials were used as a control (only RPMI medium with and also without APMA, two cell lines). […] In the following it was washed for three times with PBS and centrifuged with 800 rpm (rounds per minute) for 5 minutes.
In another test adherent U373 and LN18 glioma cells were incubated with the compounds 2A, 4A and […], and were stripped off in the following and collected in Eppendorf vials for the MRT. The MRT analysis of the Eppendorf vials with the cell centrifugates were performed in a 3 Tesla full body MRT apparatus (Trio, Siemens Magnetom Sonata, circular polarised knee coil).
The following spin echo sequence was used to obtain sagittal T1-weighted MRT images.
[…] TE (echo time): 7.4 ms, flip angle 90°, averages: 1, concatenations: 2, measurements: 2, number of slices: 19, distance factor: 30%, slice thickness: 3 mm, field of view read: 180 mm, field of view phase: 100%, base resolution: 256, phase resolution: 100%, voxel size: 0.7×0.7×3.0 mm, scan time: 1:48 min.
By means of multiple spin echo measurements (TR: 20-8000 ms, 50 different TR values) different signal intensities were measured through which the T1 relaxation time could be determined.
TR: 20-8000 ms (50 different TR values), TE: 6.4 ms, flip angle 90°, averages: 1, measurements; 1, number of slices: 1, slice thickness: 1 mm, field of view read: 120 mm, field of view phase: 87.5, base resolution 128, phase resolution; 100% voxel size: 0.9×0.9×1 mm.
For the analysis and calculations a Matlab programme (Math Works, Natick, Mass., USA) was used. The T1 values were determined via a two-parameter fit. All signal curves were examined and rated as being mono-exponential. All tests were performed three times.

The subject of test [3] is intra-cerebral LN18 brain tumors. Kind of test: In vivo magnetic resonance tomography of nude mice with implanted glioma. Here is the method:
Female nude mice CD1(Nu/Nu) were obtained from Charles River (Sulzfeld, Germany) (weight: 25 g; age: 7 weeks). Human LN18 glioma cells were grown and implanted into the brain as described by Friese et al. (2003), MICA/NKG2D-mediated Immunogene Therapy of Experimental Gliomas, Cancer Res. 63(24): 8996-9006. The tests were performed 3 weeks after the implantation.
3.6 mg of the compound 4A were dissolved in 1 ml isotonic saline solution and intraperitoneally injected into 2 mice. Further, 3.6 mg of compound 4A were dissolved in 1 ml isotonic saline solution together with 0.5 mg MMP-2 inhibitor I, and in intraperitoneally injected into 2 mice. A mouse was used as control which were injected with 1 ml pure saline solution. Narcosis was performed with ketamine (100 mg/kg) and xylazine (10 mg/kg) intraperitoneally.
MRT was performed with a 3 Tesla full body apparatus (Trio. Siemens).
The mice were placed face down in a wrist array coil.
The MRT protocol consisted of the following sequences:
Tse 3D sequence: slice thickness 0.3125 mm, field of view read 63 mm, field of view phase 100.0%, base resolution 256, phase resolution 100%, slice resolution 100%, voxel seize 0.2×0.2×0.3 mm, slab group 1, slabs 1, slices per slab 16, TR 300 ms, TE 15 ms, flip angle 70, distance factor 50, scan time 12:02 min.
T1 weighted transverse images: slice thickness 2 mm, field of view read 31 mm, field of view phase 82.3%, voxel seize 0.2×0.2×2 mm, TR 600 ms, TE 18 ms, flip angle 180, number of slices 12, distance factor 0, scan time 11:35 min.

Test [4] has as its system LN18 and U373 glioma cells. Description: Confocal laser scanning microscopy (CLSM) and FACS, staining of cell nuclei. The class given is cell-based, human. The following applies: 130 μM, APMA-containing medium, MMP-2 inactive/inhibited. How it is done: (§1) The FACS analysis was performed on a Becton-Dickinson FACSCalibur. [[…] of the cell suspension (1×10^6 cells+[…] FACS buffer (DPBS buffer with 1% paraformaldehyde)]. Approximately 25.000 to 35.000 cells were measured per sample [fluorescence excitation: argon-ion laser (480 nm), fluorescence detection: 540 to 565 nm band-path filter]. The tests were repeated two times.

The next test deals with LN18 glioma cells. Description: FACS analysis of fluorescence-stained cells. The class given is cell-based, human. The following applies: depending on the concentration; FIG. 5. Here is the method:
as §1
A general note: A flow cytometer gives signals particle by particle.

For a further test, the target named is T1, MMP-2 (Homo sapiens, UniProt P08253).
T1 construct: purchased Calbiochem
T1 sequence (P08253 110-660): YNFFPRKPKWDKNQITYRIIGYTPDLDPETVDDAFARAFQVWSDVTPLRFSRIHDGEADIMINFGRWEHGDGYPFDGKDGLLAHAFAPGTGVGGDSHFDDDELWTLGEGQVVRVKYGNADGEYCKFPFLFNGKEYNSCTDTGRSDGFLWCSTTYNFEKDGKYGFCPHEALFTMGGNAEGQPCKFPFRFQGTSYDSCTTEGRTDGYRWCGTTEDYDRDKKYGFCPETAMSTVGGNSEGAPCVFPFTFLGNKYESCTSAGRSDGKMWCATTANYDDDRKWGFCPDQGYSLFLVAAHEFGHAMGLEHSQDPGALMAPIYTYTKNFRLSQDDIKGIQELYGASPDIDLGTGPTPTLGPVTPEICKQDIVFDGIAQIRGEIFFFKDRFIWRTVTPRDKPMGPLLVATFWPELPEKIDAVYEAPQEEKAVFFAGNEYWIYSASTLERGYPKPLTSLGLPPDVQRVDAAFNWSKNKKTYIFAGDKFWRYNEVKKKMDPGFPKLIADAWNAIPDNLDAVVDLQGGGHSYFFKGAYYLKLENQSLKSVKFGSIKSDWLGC
Description: Cleavage test with MMP-2, cleavage products examined by HPLC. The test is classed as biochemical. How it is done:
The incubation in HEPES buffer with active MMP-2 was made for 2 hours.
[…]. For this 1% APMA stock solution (100 mM in DMSO) was added to the solution containing the MMP-2 proenzyme and the compounds (final APMA concentration: 1 mM, with 1% DMSO).
In the following also an incubation of 2 hours was performed. In addition the tests were made with the MMP-2 inhibitor I (Calbiochem). All six compounds were, as a control, also incubated into HEPES buffer without MMP-2 for two hours.

For “K-(GdDOTA)-G-PLGLA-GG-PKKKRKVRRRR-K(FITC)-GG-K(GdDOTA) (K(DOTA)GPLGLAGGPKKKRKVRRRRK(FITC′)GGK(DOTA)-NH2; also: DOTA groups complexed with Gd (GdDOTA)) [V4A]”, the “apoptosis (binding of Alexa annexin to phosphatidyl serine; morphologic alterations), MMP-2 active” value in test [1] was “apoptotic”. Further, the “shortening of the T1 time in comparison to the native control, inhibitor-containing medium” value in test [2] (26 and 130 μM, with MMP-2 inhibitor) is “minor shortening of the T1 time”. The “signal intensity at TR: 400 ms, active MMP-2 versus inactive MMP-2” value in test [2] (LN18 glioma cell centrifugates, 26 and 130 μm, washed and centrifuged three times) was “considerably higher signal intensity”. For the same substance, the “shortening of the T1 time in comparison to component 2A, inhibitor-free medium” value in test [2] (depending on the concentration) is “stronger shortening of the T1 time”. For the same substance, the “shortening of the T1 time, inhibitor-free medium” value in test [2] (without MMP-2 inhibitor) is recorded as “more distinct shortening of the T1 time”. For the same substance, in test [3] (30 minutes after intraperitoneal administration, FIG. 8), the “intensity of the signal in the tumor in comparison to the native image” value is reported as “considerably decreases”. In test [3] (intraperitoneal administration, nude mice with intra-cerebral LN18 brain tumors), the “signal intensity in the brain tumors in MR tomography” value is listed as “distinct increase of the signal intensity”. For the same substance, in test [3] (intraperitoneal, with MMP-2 inhibitor, remained only for a short time), the “signal intensity in the brain tumors, administered in the presence of an MMP-2 inhibitor” value was “very minor increase of the signal intensity”. For the same substance, in test [3] (intraperitoneal, one day after administration), the “signal intensity in the brain tumors one day after the administration” value was “attenuated form”. For the same substance, the “staining of the cell nuclei, MMP-2 inactive” value in test [4] is recorded as “few stained cell nuclei”. Besides, in the test on LN18 glioma cells, the “fluorescence after cleavage by MMP-2 in comparison to the components 2 and 2A” value is reported as “stronger fluorescence”. Further, the “cleavage of the compound by MMP-2 (HPLC)” value with MMP-2 (already active MMP-2 or proform of MMP-2 activated by APMA, 2 hours in HEPES buffer) is given as “cleaved”. Also, in the test with MMP-2 (with MMP-2 inhibitor I), the “cleavage of the compound by MMP-2 in presence of the inhibitor (HPLC)” value was “prevented”.
